Earlier results on one compound are cited in article PMC3518266 (Chemistry & biology, 2010).

This data set concerns the target hevamine. The note with it: competitive inhibition of hevamine; ref Vaaje-Kolstad et al., 2004; cited from earlier work.

What is called Ki is a dissociation constant, usually derived from enzyme kinetics or from competition with a known ligand. Take `CC(=O)N[C@H]1[C@H](O[C@H]2[C@@H](O)[C@@H](NC(C)=O)[C@H](O[C@H]3[C@H](O)[C@H]4N=C(N(C)C)O[C@H]4[C@@H]3CO)O[C@@H]2CO)O[C@H](CO)[C@@H](O)[C@H]1O` [allosamidin]: the Ki is 3.1 µM.
